Assay results from ChEMBL document CHEMBL3885881, “DrugMatrix”.
Several values for one entry are separate records, joined by “and”; a condition that tells them apart may be missing. Equal values may be shown once.

Species on record: Rattus norvegicus
Test: DrugMatrix - Regimen: Daily Repeat
Type: toxicity, organism-based, Sprague-Dawley
Design: regimen Daily Repeat, gender Male, age 6-8 weeks
Details: in vivo, ip, route intraperitoneal, vehicle 100 % SALINE; for SODIUM / TOTAL BILIRUBIN / TOTAL PROTEIN / URIC ACID / ALANINE AMINOTRANSFERASE / ALBUMIN / ALKALINE PHOSPHATASE / ASPARTATE AMINOTRANSFERASE / BLOOD UREA NITROGEN / CARBON DIOXIDE / CHLORIDE / CHOLESTEROL / CREATINE PHOSPHOKINASE / CREATININE / GLUCOSE / LACTATE DEHYDROGENASE / LIPASE / PHOSPHORUS / POTASSIUM: tissue Plasma; for ABSOLUTE BASOPHIL / ABSOLUTE EOSINOPHIL / ABSOLUTE LYMPHOCYTE / ABSOLUTE MONOCYTE / ABSOLUTE SEGMENTED NEUTROPHIL / BASOPHIL / EOSINOPHIL / ERYTHROCYTE COUNT / HEMATOCRIT / LEUKOCYTE COUNT / LYMPHOCYTE / MEAN CORPUSCULAR HEMOGLOBIN / MEAN CORPUSCULAR HEMOGLOBIN CONCENTRATION / MEAN CORPUSCULAR VOLUME / MONOCYTE / NEUTROPHIL / PLATELET COUNT: tissue Blood
[1] = 0 mg/kg, […], dose level Control, time 28 day
[2] = 8 mg/kg, 120 h, dose level High, time 5 day
[3] = 8 mg/kg, […], dose level High, time 14 day
[4] = 8 mg/kg, […], dose level High, time 28 day

Q: Which results are given for GOLD SODIUM THIOMALATE?
A: SODIUM [1]: 149.5 MEQ/L; TOTAL BILIRUBIN [1]: 0.21 mg/dL; TOTAL PROTEIN [1]: 6.66 G/DL; URIC ACID [1]: 1.26 mg/dL; ABSOLUTE BASOPHIL [2]: 130 cells/µL; ABSOLUTE EOSINOPHIL [2]: 56 cells/µL; ABSOLUTE LYMPHOCYTE [2]: 9210 cells/µL; ABSOLUTE MONOCYTE [2]: 260 cells/µL; ABSOLUTE SEGMENTED NEUTROPHIL [2]: 1220 cells/µL; BASOPHIL [2]: 1.14% and 0.55%; EOSINOPHIL [2]: 0.52% and 0.85%; ERYTHROCYTE COUNT [2]: 7.23 x10E6/uL and 7.38 x10E6/uL; HEMATOCRIT [2]: 44.18% and 47.65%; LEUKOCYTE COUNT [2]: 10.96 x10E3/uL and 5.99 x10E3/uL; LYMPHOCYTE [2]: 83.86% and 79.83%; MEAN CORPUSCULAR HEMOGLOBIN [2]: 19.96 pg and 20.48 pg; MEAN CORPUSCULAR HEMOGLOBIN CONCENTRATION [2]: 32.6 G/DL and 31.73 G/DL; MEAN CORPUSCULAR VOLUME [2]: 64.58 fL; MONOCYTE [2]: 2.34% and 2.35%; NEUTROPHIL [2]: 11.32% and 14.95%; PLATELET COUNT [2]: 1423.2 x10E3/uL and 1443.75 x10E3/uL; ALANINE AMINOTRANSFERASE [2]: 32.8 u/L and 21 u/L; ALBUMIN [2]: 3.28 G/DL; ALKALINE PHOSPHATASE [2]: 176.2 u/L and 278.5 u/L; ASPARTATE AMINOTRANSFERASE [2]: 100.4 u/L and 71 u/L; BLOOD UREA NITROGEN [2]: 18.2 mg/dL and 15.25 mg/dL; CARBON DIOXIDE [2]: 27 mmol/L; CHLORIDE [2]: 106.6 MEQ/L and 106.75 MEQ/L; CHOLESTEROL [2]: 68.4 mg/dL and 52.25 mg/dL; CREATINE PHOSPHOKINASE [2]: 159.5 u/L and 253 u/L; CREATININE [2]: 0.52 mg/dL and 0.45 mg/dL; GLUCOSE [2]: 124.5 mg/dL; LACTATE DEHYDROGENASE [2]: 57.5 u/L and 107.5 u/L; LIPASE [2]: 28.8 u/L and 9.75 u/L; PHOSPHORUS [2]: 9.6 mg/dL and 11.85 mg/dL; POTASSIUM [2]: 5.78 MEQ/L and 5.65 MEQ/L; SODIUM [2]: 150.8 MEQ/L and 151.5 MEQ/L; TOTAL BILIRUBIN [2]: 0.18 mg/dL and 0.32 mg/dL; TOTAL PROTEIN [2]: 5.68 G/DL and 6.25 G/DL; URIC ACID [2]: 1.38 mg/dL and 2.12 mg/dL; ABSOLUTE BASOPHIL [3]: 34 cells/µL; ABSOLUTE EOSINOPHIL [3]: 82 cells/µL; ABSOLUTE LYMPHOCYTE [3]: 8830 cells/µL; ABSOLUTE MONOCYTE [3]: 250 cells/µL; ABSOLUTE SEGMENTED NEUTROPHIL [3]: 1460 cells/µL; MEAN CORPUSCULAR HEMOGLOBIN [3]: 20.12 pg; ABSOLUTE BASOPHIL [4]: 110 cells/µL; ABSOLUTE EOSINOPHIL [4]: 71 cells/µL; ABSOLUTE LYMPHOCYTE [4]: 9610 cells/µL; ABSOLUTE MONOCYTE [4]: 180 cells/µL; ABSOLUTE SEGMENTED NEUTROPHIL [4]: 1180 cells/µL; BASOPHIL [4]: 0.95%; EOSINOPHIL [4]: 0.64%; ERYTHROCYTE COUNT [4]: 7.92 x10E6/uL; HEMATOCRIT [4]: 45.49%; LEUKOCYTE COUNT [4]: 11.2 x10E3/uL; LYMPHOCYTE [4]: 85.54%; MEAN CORPUSCULAR HEMOGLOBIN [4]: 18.71 pg; MEAN CORPUSCULAR HEMOGLOBIN CONCENTRATION [4]: 32.56 G/DL; MEAN CORPUSCULAR VOLUME [4]: 57.51 fL; MONOCYTE [4]: 1.65%; NEUTROPHIL [4]: 10.78%; PLATELET COUNT [4]: 1410.8 x10E3/uL; CARBON DIOXIDE [3]: 25 mmol/L; CHLORIDE [3]: 108.6 MEQ/L; ALANINE AMINOTRANSFERASE [4]: 33.3 u/L; ALBUMIN [4]: 3.51 G/DL; ALKALINE PHOSPHATASE [4]: 144.9 u/L; ASPARTATE AMINOTRANSFERASE [4]: 73.8 u/L; BLOOD UREA NITROGEN [4]: 12.7 mg/dL; CHLORIDE [4]: 107.3 MEQ/L; CHOLESTEROL [4]: 48.9 mg/dL; CREATINE PHOSPHOKINASE [4]: 237.4 u/L; CREATININE [4]: 0.61 mg/dL; GLUCOSE [4]: 141.1 mg/dL; LACTATE DEHYDROGENASE [4]: 100.8 u/L; LIPASE [4]: 13.2 u/L; PHOSPHORUS [4]: 9.57 mg/dL; POTASSIUM [4]: 6.28 MEQ/L; SODIUM [4]: 150 MEQ/L; TOTAL BILIRUBIN [4]: 0.2 mg/dL; TOTAL PROTEIN [4]: 6.4 G/DL; URIC ACID [4]: 1.22 mg/dL
